The nature of series [1]: Stability towards moisture and humidity (statement only). Format: physicochemical.
The nature of series [2]: Hygroscopicity (statement only). Format: physicochemical.
The nature of series [3]: Solubility (statement only). The class given is physicochemical.
The nature of series [4]: Chemical stability on storage (temperature and relative humidity).
Source text: Conditions evaluated include temperature and relative humidity (RH).
Where [5] appears, read: 25 ± 2° C./60 ± 5% RH, 0 months.
Where [6] appears, read: 25 ± 2° C./60 ± 5% RH, 2 months.
The mark [7] stands for this setting: 25 ± 2° C./60 ± 5% RH, 3 months.

As to Nilotinib D-malate, in series [1], the “stability towards moisture and humidity” value is on record as “relatively stable”. Moreover, the hygroscopicity entry in series [2] is on record as “not hygroscopic”. In addition, the “solubility in physiologically acceptable solvents” value in series [3] is given as “readily soluble”.

Take Nilotinib D-tartrate: in series [1], the “stability towards moisture and humidity” value is “relatively stable”. Besides, in series [2], the hygroscopicity result was “not hygroscopic”. Moreover, the “5- methyl isomer impurity (NMT 3 ppm)” value in series [4] (2 to 8° C., 0 months) turned out to be 0.6 ppm; in series [4] (2 to 8° C., 1 month), 0.5 ppm; in series [4] (2 to 8° C., 2 months), 0.7 ppm; in series [4] (2 to 8° C., 3 months), 1.1 ppm; in series [4] (setting [5]), 0.6 ppm; in series [4] (25 ± 2° C./60 ± 5% RH, 1 month), 0.5 ppm. Besides, the “5- methyl isomer impurity (NMT 3 ppm)” value in series [4] (setting [6]) stood at 0.7 ppm; in series [4] (setting [7]), 1.1 ppm. Besides, the “Total impurities (NMT 0.4%)” value in series [4] (2 to 8° C., 0 months) is listed as 0.01%; in series [4] (2 to 8° C., 3 months), 0.05%; in series [4] (setting [5]), 0.01%; in series [4] (setting [7]), 0.04%. Moreover, the XRPD result is reported as “Form C1” in series [4] (2 to 8° C., 0 months); “Stable” in series [4] (2 to 8° C., 1 month); “Stable” in series [4] (2 to 8° C., 2 months); “Stable” in series [4] (2 to 8° C., 3 months); “Form C1” in series [4] (setting [5]); “Stable” in series [4] (25 ± 2° C./60 ± 5% RH, 1 month). The XRPD result in series [4] (setting [6]) and in series [4] (setting [7]) was “Stable” throughout. For the same substance, the “chemical stability / long term storage stability” value in series [4] (temperature and relative humidity (RH)) is recorded as “chemically more stable”.

The values above are taken from patent US20230075170A1, “NOVEL SALTS OF NILOTINIB AND POLYMORPHIC FORMS THEREOF” (CIPLA LIMITED, priority 2020, published 2023).
